Earlier results as cited in patent publication US20240023548A1, “TAU-FLUVALINATE COMPOSITIONS” (Adama Makhteshim Ltd., priority 2020, published 2024).

## CC(C)[C@@H](Nc1ccc(C(F)(F)F)cc1Cl)C(=O)OC(C#N)c1cccc(Oc2ccccc2)c1 (some centres unmarked) [Tau-fluvalinate, tau-fluvalinate]
Organic solvents
  Solubility in organic solvents: soluble in organic solvents
water
  Solubility in water: low solubility in water
